Measured values taken from article PMC6277767, “Broad and Region-Specific Impacts of the Synthetic Cannabinoid CP 55,940 in Adolescent and Adult Female Mouse Brains” (Frontiers in Molecular Neuroscience, 2018).

Tested on: CD1 female mouse brain lipidome
Experiment: Brain-region lipid levels (HPLC/MS/MS lipidomics) 2 h after single i.p. 3 mg/kg CP 55,940 vs vehicle
Type: in vivo
Details: cerebellum
Protocol: The Bloomington Institutional Animal Care and Use Committee of Indiana University reviewed and approved the animal procedures. Female mice from the CD1 strain were utilized to match our study examining THC’s effects on the brain lipidome ([Leishman et al., 2018]). Mice were given a single i.p. injection of either 3 mg/kg CP or 1:1:18 cremophor:ethanol:saline vehicle (please refer to the section “3 mg/kg CP Is Relevant for Synthetic Cannabinoid Abuse and Has Stronger Effects on the Female Mouse Brain Lipidome During Adolescence” for a justification of dose and use of female mice). Three different age groups were given injections: PND 35 and PND 50 adolescents, and adult mice (PND 113). At least eight mice in each age group received CP and at least eight received vehicle. Matching the THC study time course ([Leishman et al., 2018]), mice were sacrificed via rapid decapitation 2 h after injection. Brains were immediately removed and flash-frozen in liquid nitrogen, and then stored at -80°C until dissections were performed. Brains were dissected on an ice-cold dissection plate into the following regions: STR, HIPP, CER, THAL, CTX, HYP, MID, and STEM. These abbreviations for these brain areas will be used exclusively when discussing the results generated by these specific dissections. Each dissected area was immediately placed in liquid nitrogen and then stored at -80°C until used for lipid extraction.
Tissue extracts were performed as previously described ([Bradshaw et al., 2006]; [Stuart et al., 2013]; [Raboune et al., 2014]; [Leishman et al., 2016a],[b], [2017], [2018]). First, samples were shock frozen in liquid nitrogen, weighed, and transferred to a centrifuge tube. The mass of the largest sample was multiplied by 50 to determine how many milliliters of HPLC-grade methanol (Fisher, Fair Lawn, NJ, United States) to add. Then, samples were spiked with 500 pmol deuterium-labeled NAGly (d8NAGly; Cayman Chemical, Ann Arbor, MI, United States). Samples were placed on ice in darkness for 2 h then individually homogenized and centrifuged at 19,000 × g for 20 min at 20°C. Supernatants were diluted with HPLC water (purified in house) to make a solution of 75% water, 25% supernatant. Lipids were partially purified on C18 solid phase extraction columns (Agilent, Palo Alto, CA, United States). A series of four elutions with 1.5 mL of 60%, 75%, 85%, and 100% methanol were collected ([Stuart et al., 2013]; [Leishman et al., 2016a],[b], [2018]).
As previously described ([Bradshaw et al., 2006]; [Tan et al., 2006]; [Smoum et al., 2010]; [Stuart et al., 2013]; [Tortoriello et al., 2013]; [Raboune et al., 2014]; [Leishman et al., 2016a],[b], [2017], [2018]), samples were analyzed using an Applied Biosystems API 3000 triple quadrupole mass spectrometer with electrospray ionization (Foster City, CA, United States). Using an Agilent XDB-C18 reversed phase analytical column and optimized mobile phase gradients, 20 μL from each elution were chromatographed. Two Shimadzu 10ADvp pumps (Columbia, MD, United States) provided the pressure for gradient elution. Mobile phase A: 20% methanol, 80% water (v/v) and 1 mM ammonium acetate (Sigma, St. Louis, MO, United States). Mobile phase B: 100% methanol, 1 mM ammonium acetate. Every method run began with 0% mobile phase B, reached 100% mobile phase B flowing at 0.2 mL/min, and gradually returned to 0% mobile phase B.
This screening library will be referred to as the lipidome when discussing data from this study. HPLC/MS/MS data were analyzed using Analyst software (Applied Biosystems) ([Bradshaw et al., 2006]; [Tan et al., 2006]; [Stuart et al., 2013]; [Tortoriello et al., 2013]; [Raboune et al., 2014]; [Leishman et al., 2016a],[b], [2017], [2018]). Chromatograms (Supplementary Figure 3) were generated by determining the retention time of analytes from the analytical column with a [M-1] or [M+1] parent peak and a fragmentation peak corresponding to the programmed values. […]

[1] = WT adult female mice, 3mg/kg CP 55,940

## CCCCCCC(C)(C)c1ccc([C@@H]2C[C@H](O)CC[C@H]2CCCO)c(O)c1 [CP 55,940]
[1]
  N-palmitoyl serine level, Mean: 5.77E-12
  N-palmitoyl tyrosine level, Mean: 9.82E-13
  N-palmitoyl valine level, Mean: 1.08E-13
  N-stearoyl GABA level, Mean: 1.12E-11
  N-stearoyl alanine level, Mean: 5.69E-12
  N-stearoyl ethanolamine level, Mean: 1.6E-11
  N-stearoyl glycine level, Mean: 1.62E-12
  N-stearoyl leucine level, Mean: 1.18E-12
  N-stearoyl methionine level, Mean: 3.32E-13
  N-stearoyl phenylalanine level, Mean: 2.74E-13
  N-stearoyl serine level, Mean: 1.52E-11
  Oleic acid level, Mean: 6.36E-10
  PGE2 level, Mean: 2.14E-10
  PhosphoLEA level, Mean: 4.64E-12
adult, 3 mg/kg CP 55,940
  2-arachidonoyl glycerol: Direction (relative to Veh): ↓
  2-arachidonoyl glycerol: Magnitude (x Veh level): 0.81 x Veh level
  2-linoleoyl glycerol: Direction (relative to Veh): ↓
  2-linoleoyl glycerol: Magnitude (x Veh level): 0.66 x Veh level
  2-oleoyl glycerol: Direction (relative to Veh): ↓
  2-oleoyl glycerol: Magnitude (x Veh level): 0.74 x Veh level
  6-ketoPGF1α: Direction (relative to Veh): ↓
  6-ketoPGF1α: Magnitude (x Veh level): 0.68 x Veh level
  Arachidonic acid: Direction (relative to Veh): ↓
  Arachidonic acid: Magnitude (x Veh level): 0.67 x Veh level
  Linoleic acid: Direction (relative to Veh): ↓
  Linoleic acid: Magnitude (x Veh level): 0.63 x Veh level
  N-arachidonoyl GABA: Direction (relative to Veh): ↓
  N-arachidonoyl GABA: Magnitude (x Veh level): 0.65 x Veh level
  N-arachidonoyl ethanolamine: Direction (relative to Veh): ↓
  N-arachidonoyl ethanolamine: Magnitude (x Veh level): 0.63 x Veh level
  N-arachidonoyl phenylalanine: Direction (relative to Veh): ↓
  N-arachidonoyl phenylalanine: Magnitude (x Veh level): 0.41 x Veh level
  N-arachidonoyl taurine: Direction (relative to Veh): ↓
  N-arachidonoyl taurine: Magnitude (x Veh level): 0.77 x Veh level
  N-docosahexaenoyl GABA: Direction (relative to Veh): ↓
  N-docosahexaenoyl GABA: Magnitude (x Veh level): 0.83 x Veh level
  N-docosahexaenoyl ethanolamine: Direction (relative to Veh): ↓
  N-docosahexaenoyl ethanolamine: Magnitude (x Veh level): 0.73 x Veh level
  N-linoleoyl GABA: Direction (relative to Veh): ↓
  N-linoleoyl GABA: Magnitude (x Veh level): 0.83 x Veh level
  N-linoleoyl ethanolamine: Direction (relative to Veh): ↓
  N-linoleoyl ethanolamine: Magnitude (x Veh level): 0.64 x Veh level
  N-oleoyl serine: Direction (relative to Veh): ↓
  N-oleoyl serine: Magnitude (x Veh level): 0.72 x Veh level
  N-oleoyl valine: Direction (relative to Veh): ↑
  N-oleoyl valine: Magnitude (x Veh level): 2.05 x Veh level
  N-palmitoyl tyrosine: Direction (relative to Veh): ↓
  N-palmitoyl tyrosine: Magnitude (x Veh level): 0.74 x Veh level
  Oleic acid: Direction (relative to Veh): ↓
  Oleic acid: Magnitude (x Veh level): 0.63 x Veh level
  PGE2: Direction (relative to Veh): ↓
